As a reminder, the EC50 is the concentration at which the effect is half-maximal. A lower EC50 goes with greater potency.

The text below walks through data of patent US20230346961A1, “GLP-1 AND GIP RECEPTOR CO-AGONISTS” (Novo Nordisk A/S, priority 2020, published 2023).

In one assay the target is human GLP-1 receptor (Homo sapiens, UniProt P43220). In words: cell-based. The note with it: hGLP-1R.
A further assay concerns the target T1, mouse GIP receptor (Mus musculus, UniProt Q0P543).
T1 sequence (Q0P543 19-460): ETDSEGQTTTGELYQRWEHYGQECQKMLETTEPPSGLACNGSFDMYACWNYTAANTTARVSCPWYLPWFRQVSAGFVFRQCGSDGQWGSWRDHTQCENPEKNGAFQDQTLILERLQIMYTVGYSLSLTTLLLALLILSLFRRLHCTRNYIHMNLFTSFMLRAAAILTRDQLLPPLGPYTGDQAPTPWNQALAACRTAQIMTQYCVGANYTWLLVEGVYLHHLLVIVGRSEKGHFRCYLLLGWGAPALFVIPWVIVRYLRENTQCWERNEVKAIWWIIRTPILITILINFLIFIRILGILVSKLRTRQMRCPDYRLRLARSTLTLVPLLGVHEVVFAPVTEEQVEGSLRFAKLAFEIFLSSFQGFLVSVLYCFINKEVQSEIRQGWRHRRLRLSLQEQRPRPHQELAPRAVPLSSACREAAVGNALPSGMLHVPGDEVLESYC
The experiment in a line: cell-based.

The target of a further assay is T2, mouse GLP-1 receptor (Mus musculus, UniProt O35659).
T2 sequence (O35659 22-463): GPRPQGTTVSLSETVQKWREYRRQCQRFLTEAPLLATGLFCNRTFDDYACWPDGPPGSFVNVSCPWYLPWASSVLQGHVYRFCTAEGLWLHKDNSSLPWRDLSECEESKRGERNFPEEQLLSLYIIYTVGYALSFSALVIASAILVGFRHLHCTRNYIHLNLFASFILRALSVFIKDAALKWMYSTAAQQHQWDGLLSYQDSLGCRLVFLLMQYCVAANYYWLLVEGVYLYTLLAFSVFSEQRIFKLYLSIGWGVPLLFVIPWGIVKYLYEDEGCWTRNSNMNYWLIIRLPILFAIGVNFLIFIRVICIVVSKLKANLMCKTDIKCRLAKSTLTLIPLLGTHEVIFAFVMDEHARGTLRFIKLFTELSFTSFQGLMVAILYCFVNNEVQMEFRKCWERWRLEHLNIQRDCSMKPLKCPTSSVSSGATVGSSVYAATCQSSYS

Starred links: 1 amine or outer side, 2 acyl side, 3 side chain; linkers in the order of their positions; H or OH if unused. Non-standard residues stand in square brackets, D forms with d. Residues, ends and D or L forms follow the SMILES beside them. Groups on a side chain read outwards from the residue. *: point of attachment. C20 diacid = O=C(O)CCCCCCCCCCCCCCCCCCC(=O)*; C18 diacid = O=C(O)CCCCCCCCCCCCCCCCC(=O)*; γGlu = O=C(O)[C@H](CCC(=O)[*:2])N[*:1]; εLys = N[C@@H](CCCCN[*:1])C(=O)[*:2]; Trx = NC[C@H]1CC[C@H](C(=O)O)CC1; AEEA = NCCOCCOCC(=O)O; Aib = CC(C)(N)C(=O)O Some results are limits rather than exact numbers.

Chain of human GLP-1 receptor (P43220 24-463): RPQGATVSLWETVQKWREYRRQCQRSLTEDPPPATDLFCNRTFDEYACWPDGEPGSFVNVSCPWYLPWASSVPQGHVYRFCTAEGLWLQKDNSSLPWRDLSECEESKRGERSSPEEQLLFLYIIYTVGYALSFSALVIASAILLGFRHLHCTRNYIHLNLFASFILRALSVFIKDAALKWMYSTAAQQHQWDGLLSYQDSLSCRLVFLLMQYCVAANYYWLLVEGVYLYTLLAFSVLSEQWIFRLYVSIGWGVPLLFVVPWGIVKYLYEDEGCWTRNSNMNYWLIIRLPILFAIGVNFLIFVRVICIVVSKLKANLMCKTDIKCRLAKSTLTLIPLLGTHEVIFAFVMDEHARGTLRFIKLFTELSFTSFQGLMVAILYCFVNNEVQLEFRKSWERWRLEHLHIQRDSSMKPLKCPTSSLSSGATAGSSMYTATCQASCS
Protocol for mouse GIP receptor: The in vitro functional potency is the measure of target receptor activation in a whole cell assay.
In vitro functional potency was determined by measuring the response of the target receptor in a reporter gene assay in individual cell lines. […] When the respective receptor is activated, it results in the production of cAMP, which in turn results in expression of the luciferase protein. When assay incubation is completed, luciferase substrate (luciferin) is added resulting in the enzymatic conversion of luciferin to oxyluciferin and producing bioluminescence. The luminescence is measured as the readout for the assay.
The cells lines used in these assays were BHK cells with BHKTS13 as a parent cell line. The cell lines were derived from a clone containing the CRE luciferase element and were established by further transfection with the respective receptor to obtain the relevant cell line.
The cells were cultured at 37° C. with 5% CO2 in Cell Culture Medium. They were aliquoted and stored in liquid nitrogen. The cells were kept in continuous culture and were seeded out the day before each assay.
GLP-1R and GcgR Cell Culture Medium consisted of DMEM medium with 10% FBS, 500 μg/mL G418, and 300 μg/mL hygromycin. GIPR Cell Culture Medium consisted of DMEM medium with 10% FBS, 400 μg/mL G418, and 300 μg/mL hygromycin. Assay Buffer consisted of DMEM w/o phenol red, 10 mM Hepes, 1×Glutamax, 1% ovalbumin, and 0.1% Pluronic F-68 with the addition of HSA at twice the final assay concentration.
• 1) Cells were plated at 5000 cells/well and incubated overnight in the assay plate. • 2) Cells were washed once in DPBS. • 3) Stocks of the test compounds and reference compounds in concentrations ranging from 100-300 μM were diluted 1:150 in Assay Buffer. Compounds were then diluted 1:10 in column 1 of a 96 deep well dilution plate and then carried across the row creating a 3.5 fold, 12 point dilution curve. • 4) Assay Buffer (50 μl aliquot) with or without HSA was added to each well in the assay plate. • 5) A 50 μl aliquot of compound or blank was transferred from the dilution plate to the assay plate containing the Assay Buffer with or without HSA. • 6) The assay plate was incubated for 3 h in a 5% CO2 incubator at 37° C. 7) The cells were washed once with DPBS. • 8) A 100 μl aliquot of DPBS was added to each well of the assay plate. • 9) A 100 μl aliquot of steadylite plus reagent (light sensitive) was added to each well of the assay plate. • 10) Each assay plate was covered with aluminum foil to protect it from light and shaken at 250 RPM for 30 min at room temperature. • 11) Each assay plate was read in a microtiter plate reader.
The data from the microtiter plate reader was first regressed in an Excel in order to calculate the x-axis, log scale concentrations based on the individual test compound's stock concentration and the dilutions of the assay. […] The software performs a non-linear regression (log(agonist) vs response). A minimum of two replicates was measured for each sample. The reported values are averages of the replicates.

On to `CC[C@H](C)[C@H](NC(=O)[C@H](CO)NC(=O)[C@H](Cc1ccc(O)cc1)NC(=O)[C@H](CC(=O)O)NC(=O)[C@H](CO)NC(=O)[C@@H](NC(=O)[C@H](Cc1ccccc1)NC(=O)[C@@H](NC(=O)CNC(=O)[C@H](CCC(=O)O)NC(=O)C(C)(C)NC(=O)[C@@H](N)Cc1ccc(O)cc1)[C@@H](C)O)[C@@H](C)CC)C(=O)N[C@@H](Cc1ccc(O)cc1)C(=O)N[C@@H](CC(C)C)C(=O)N[C@@H](CC(=O)O)C(=O)N[C@@H](CCCCN)C(=O)N[C@@H](CCC(N)=O)C(=O)N[C@@H](C)C(=O)N[C@@H](C)C(=O)NC(C)(C)C(=O)N[C@@H](CCCCNC(=O)[C@@H](N)CCCCNC(=O)[C@@H](N)CCCCNC(=O)CC[C@H](NC(=O)CCCCCCCCCCCCCCCCC(=O)O)C(=O)O)C(=O)N[C@@H](Cc1ccccc1)C(=O)N[C@H](C(=O)N[C@@H](CC(N)=O)C(=O)N[C@@H](Cc1c[nH]c2ccccc12)C(=O)N[C@@H](CC(C)C)C(=O)N[C@@H](CC(C)C)C(=O)N[C@@H](C)C(=O)NCC(=O)NCC(=O)N1CCC[C@H]1C(=O)N[C@@H](CO)C(=O)N[C@@H](CO)C(=O)NCC(=O)N[C@@H](C)C(=O)N1CCC[C@H]1C(=O)N1CCC[C@H]1C(=O)N1CCC[C@H]1C(=O)N[C@@H](CO)C(N)=O)C(C)C` [Compound 11] (H-Y[Aib]EGTFISDYSIYLDKQAA[Aib]K([εLys-εLys-γGlu-C18 diacid])FVNWLLAGGPSSGAPPPS-NH2; N-terminus assumed), for which the EC50 came out at 0.394 nM on human GLP-1 receptor (CRE Luc 0% HSA EC50, 0% HSA); 0.0137 nM on mouse GIP receptor; 0.281 nM on mouse GLP-1 receptor.

Take `CC[C@H](C)[C@H](NC(=O)[C@H](CO)NC(=O)[C@H](Cc1ccc(O)cc1)NC(=O)[C@H](CC(=O)O)NC(=O)[C@H](CO)NC(=O)[C@@H](NC(=O)[C@H](Cc1ccccc1)NC(=O)[C@@H](NC(=O)CNC(=O)[C@H](CCC(=O)O)NC(=O)C(C)(C)NC(=O)[C@@H](N)Cc1ccc(O)cc1)[C@@H](C)O)[C@@H](C)O)C(=O)N[C@@H](Cc1ccc(O)cc1)C(=O)N[C@@H](CC(C)C)C(=O)N[C@@H](CC(=O)O)C(=O)N[C@@H](CCCCN)C(=O)N[C@@H](CCC(N)=O)C(=O)N[C@@H](C)C(=O)N[C@@H](C)C(=O)NC(C)(C)C(=O)N[C@@H](CCCCNC(=O)COCCOCCNC(=O)COCCOCCNC(=O)CC[C@H](NC(=O)CCCCCCCCCCCCCCCCC(=O)O)C(=O)O)C(=O)N[C@@H](Cc1ccccc1)C(=O)N[C@H](C(=O)N[C@@H](CC(N)=O)C(=O)N[C@@H](Cc1c[nH]c2ccccc12)C(=O)N[C@@H](CC(C)C)C(=O)N[C@@H](CC(C)C)C(=O)N[C@@H](C)C(=O)NCC(=O)NCC(=O)N1CCC[C@H]1C(=O)N[C@@H](CO)C(=O)N[C@@H](CO)C(=O)NCC(=O)N[C@@H](C)C(=O)N1CCC[C@H]1C(=O)N1CCC[C@H]1C(=O)N1CCC[C@H]1C(=O)N[C@@H](CO)C(N)=O)C(C)C` [Compound 5] (H-Y[Aib]EGTFTSDYSIYLDKQAA[Aib]K([AEEA-AEEA-γGlu-C18 diacid])FVNWLLAGGPSSGAPPPS-NH2; N-terminus assumed): the half-maximal effective concentration (EC50) on human GLP-1 receptor (CRE Luc 0% HSA EC50, 0% HSA) came to 0.0092 nM; on human GLP-1 receptor (CRE Luc 1% HSA EC50, 1% HSA), 0.161 nM; at mouse GIP receptor it was 0.523 nM; on mouse GLP-1 receptor it was 0.0025 nM.

For the compound `CC[C@H](C)[C@H](NC(=O)[C@H](CO)NC(=O)[C@@H](NC(=O)[C@H](CC(=O)O)NC(=O)[C@H](CO)NC(=O)[C@@H](NC(=O)[C@H](Cc1ccccc1)NC(=O)[C@@H](NC(=O)CNC(=O)[C@H](CCC(=O)O)NC(=O)C(C)(C)NC(=O)[C@@H](N)Cc1c[nH]cn1)[C@@H](C)O)[C@@H](C)O)C(C)C)C(=O)N[C@@H](Cc1ccc(O)cc1)C(=O)N[C@@H](CC(C)C)C(=O)N[C@@H](CC(=O)O)C(=O)N[C@@H](CCCCN)C(=O)N[C@@H](CCC(N)=O)C(=O)N[C@@H](C)C(=O)N[C@@H](C)C(=O)NC(C)(C)C(=O)N[C@@H](CCCCNC(=O)[C@@H](N)CCCCNC(=O)[C@@H](N)CCCCNC(=O)CC[C@H](NC(=O)CCCCCCCCCCCCCCCCC(=O)O)C(=O)O)C(=O)N[C@@H](Cc1ccccc1)C(=O)N[C@H](C(=O)N[C@@H](CC(N)=O)C(=O)N[C@@H](Cc1c[nH]c2ccccc12)C(=O)N[C@@H](CC(C)C)C(=O)N[C@@H](CC(C)C)C(=O)N[C@@H](C)C(=O)NCC(=O)NCC(=O)N1CCC[C@H]1C(=O)N[C@@H](CO)C(=O)N[C@@H](CO)C(=O)NCC(=O)N[C@@H](C)C(=O)N1CCC[C@H]1C(=O)N1CCC[C@H]1C(=O)N1CCC[C@H]1C(=O)N[C@@H](CO)C(N)=O)C(C)C` [Compound 12] (H-H[Aib]EGTFTSDVSIYLDKQAA[Aib]K([εLys-εLys-γGlu-C18 diacid])FVNWLLAGGPSSGAPPPS-NH2; N-terminus assumed), the EC50 at human GLP-1 receptor (CRE Luc 0% HSA EC50, 0% HSA) is 0.0029 nM; at mouse GIP receptor it was above 10 nM; at mouse GLP-1 receptor it was 0.0022 nM.

As for `CC[C@H](C)[C@H](NC(=O)[C@H](CO)NC(=O)[C@H](Cc1ccc(O)cc1)NC(=O)[C@H](CC(=O)O)NC(=O)[C@H](CO)NC(=O)[C@@H](NC(=O)[C@H](Cc1ccccc1)NC(=O)[C@@H](NC(=O)CNC(=O)[C@H](CCC(=O)O)NC(=O)C(C)(C)NC(=O)[C@@H](N)Cc1ccc(O)cc1)[C@@H](C)O)[C@@H](C)O)C(=O)N[C@@H](Cc1ccc(O)cc1)C(=O)N[C@@H](CC(C)C)C(=O)N[C@@H](CC(=O)O)C(=O)N[C@@H](CCCCN)C(=O)N[C@@H](CCCCNC(=O)COCCOCCNC(=O)COCCOCCNC(=O)CC[C@H](NC(=O)CCCCCCCCCCCCCCCCC(=O)O)C(=O)O)C(=O)N[C@@H](C)C(=O)N[C@@H](C)C(=O)NC(C)(C)C(=O)N[C@@H](CCC(=O)O)C(=O)N[C@@H](Cc1ccccc1)C(=O)N[C@H](C(=O)N[C@@H](CC(N)=O)C(=O)N[C@@H](Cc1c[nH]c2ccccc12)C(=O)N[C@@H](CC(C)C)C(=O)N[C@@H](CC(C)C)C(=O)N[C@@H](C)C(=O)NCC(=O)NCC(=O)N1CCC[C@H]1C(=O)N[C@@H](CO)C(=O)N[C@@H](CO)C(=O)NCC(=O)N[C@@H](C)C(=O)N1CCC[C@H]1C(=O)N1CCC[C@H]1C(=O)N1CCC[C@H]1C(=O)N[C@@H](CO)C(N)=O)C(C)C` [Compound 4] (H-Y[Aib]EGTFTSDYSIYLDKK([AEEA-AEEA-γGlu-C18 diacid])AA[Aib]EFVNWLLAGGPSSGAPPPS-NH2; N-terminus assumed), the EC50 was found to be 0.0106 nM on human GLP-1 receptor (CRE Luc 0% HSA EC50, 0% HSA); 0.232 nM at human GLP-1 receptor (CRE Luc 1% HSA EC50, 1% HSA); 1.55 nM on mouse GIP receptor; 0.0039 nM at mouse GLP-1 receptor.

`CC[C@H](C)[C@H](NC(=O)[C@H](CO)NC(=O)[C@H](Cc1ccc(O)cc1)NC(=O)[C@H](CC(=O)O)NC(=O)[C@H](CO)NC(=O)[C@@H](NC(=O)[C@H](Cc1ccccc1)NC(=O)[C@@H](NC(=O)CNC(=O)[C@H](CCC(=O)O)NC(=O)C(C)(C)NC(=O)[C@@H](N)Cc1ccc(O)cc1)[C@@H](C)O)[C@@H](C)O)C(=O)N[C@@H](Cc1ccc(O)cc1)C(=O)N[C@@H](CC(C)C)C(=O)N[C@@H](CCC(=O)O)C(=O)N[C@@H](CCCCNC(=O)[C@@H](N)CCCCNC(=O)[C@@H](N)CCCCNC(=O)CC[C@H](NC(=O)[C@H]1CC[C@H](CNC(=O)CCCCCCCCCCCCCCCCCCC(=O)O)CC1)C(=O)O)C(=O)N[C@@H](CCC(N)=O)C(=O)N[C@@H](C)C(=O)N[C@@H](C)C(=O)NC(C)(C)C(=O)N[C@@H](CCC(=O)O)C(=O)N[C@@H](Cc1ccccc1)C(=O)N[C@H](C(=O)N[C@@H](CCC(N)=O)C(=O)N[C@@H](Cc1c[nH]c2ccccc12)C(=O)N[C@@H](CC(C)C)C(=O)N[C@@H](CC(C)C)C(=O)N[C@@H](CCC(=O)O)C(=O)NCC(=O)NCC(=O)N1CCC[C@H]1C(=O)N[C@@H](CO)C(=O)N[C@@H](CO)C(=O)NCC(=O)N[C@@H](C)C(N)=O)C(C)C` [Compound 33] (H-Y[Aib]EGTFTSDYSIYLEK([εLys-εLys-γGlu-Trx-C20 diacid])QAA[Aib]EFVQWLLEGGPSSGA-NH2; N-terminus assumed): the concentration for a half-maximal effect (EC50) was 0.0059 nM at human GLP-1 receptor (CRE Luc 0% HSA EC50, 0% HSA); 0.741 nM at human GLP-1 receptor (CRE Luc 1% HSA EC50, 1% HSA); 0.0311 nM on mouse GIP receptor; 0.004 nM on mouse GLP-1 receptor.
